Experimental data reported in patent US8501950B2, “N-cyanoalkylanthranilamides as insecticides” (Syngenta Crop Protection LLC, priority 2006, dated 2013).
Where two headings read alike, the source gives them in different places.

Experiments:
[1] = tested on: Plutella xvlostella (Diamond Back Moth); assay: Example B3: activity against Plutella xylostella, L2 larvae on artificial diet; format: in vivo; conditions: 120 h
Description: Activity Against Plutella xvlostella (Diamond Back Moth)
24-well microtiter plate (MTP) with artificial diet is sprayed with test solutions. After drying, the MTP's are infested with larvae (L2)(10-15 per well). After an incubation period of 5 days, samples are checked for larval mortality, antifeedant and growth inhibition.

[2] = tested on: Heliothis virescens (Tobacco Budworm); assay: Example B2: activity against Heliothis virescens, eggs on artificial diet; format: in vivo; conditions: 96 h
Description: Activity Against Heliothis virescens (Tobacco Budworm)
Eggs (0-24 h old) are placed in 24-well microtiter plate on artificial diet and sprayed with test solutions. After an incubation period of 4 days, samples are checked for egg mortality, larval mortality, and growth inhibition.

[3] = tested on: Cydia pomonella (Codling Moth); assay: Example B10: activity against Cydia pomonella, sprayed diet cubes; format: in vivo; conditions: 336 h
Description: Activity Against Cydia pomonella (Codling Moth)
Standard Cydia diet cubes (1.5 cm width) are pierced with a tooth-pick and are immersed in liquid paraffin (ca. 80° C.). After the paraffin coat has hardened, an aqueous emulsion containing 12.5 ppm of active ingredient is applied using a De Vilbis sprayer (25 ml, 1 bar). After the spray coating has dried, the cubes are put into plastic containers which are then populated with two freshly hatched Cydia pomonella (1st instar). The containers are then closed with a plastic cap. After 14 days incubation at 26° C. and 40-60% relative humidity, the survival rate of the caterpillars as well as their growth regulation is determined.

[4] = tested on: Thrips tabaci (Onion Thrips); assay: Example B7: activity against Thrips tabaci, sunflower leaf discs; format: in vivo; conditions: foliar, 144 h
Description: Activity Against Thrips tabaci (Onion Thrips)
Sunflower leaf discs are placed on agar in a 24-well microtiter plate and sprayed with test solutions. After drying, the leaf discs are infested with a thrips population of mixed ages. After an incubation period of 6 days, samples are checked for mortality and special effects (e.g. phytotoxicity).

[5] = tested on: Spodoptera littoralis (Cotton Leafworm); assay: Example B9: systemic insecticide test for Spodoptera littoralis, maize seedlings at 12.5 ppm; format: in vivo
Description: (§1) Systemic Insecticide Test for Spodoptera littoralis (Cotton Leafworm)
[…] Seedlings are allowed to grow for six days. Subsequently leaves are cut and placed in a Petri dish (5 cm diameter), inoculated with twelve to fifteen 1st instar S. littoralis larvae and incubated for four days in a growth chamber (25° C., 50% r.h., 18:6 L:D photo period). Number of alive insects are counted and percentage of dead calculated. Tests were conducted with one replicate.

[6] = tested on: Spodoptera littoralis (Egyptian Cotton Leafworm); assay: Example B1: activity against Spodoptera littoralis, sprayed cotton leaf discs, L1 larvae; format: in vivo; conditions: foliar, 72 h
Text: Activity Against Spodoptera littoralis (Egyptian Cotton Leafworm)
Cotton leaf discs are placed on agar in a 24-well microtiter plate and sprayed with test solutions. After drying, the leaf discs are infested with 5 L1 larvae. The samples are checked for mortality, repellent effect, feeding behaviour, and growth inhibition 3 days after treatment (DAT).

[7] = tested on: Spodoptera littoralis (Cotton Leafworm); assay: Example B11: systemic insecticide test for Spodoptera littoralis, comparison with prior art; format: in vivo; conditions: for mortality at 0.0125 ppm / mortality at 0.05 ppm: Spodoptera littoralis, 120 h, read-out: Mortality (%) after 5 days
Text: as §1
[…] Seedlings are allowed to grow for six days. […] Number of alive insects are counted and percentage of dead calculated.

[8] = tested on: Frankliniella occidentalis (Western Flower Thrips); assay: Example B12: activity against Frankliniella occidentalis, sprayed bean plants, comparison with prior art; format: in vivo; conditions: for inhibition at 12.5 ppm / inhibition at 25 ppm / inhibition at 50 ppm: Frankliniella occidentalis, 288 h, reduction of treated population vs non treated, read-out: Activity (%) after 12 days
Description: Activity Against Frankliniella occidentalis (Western Flower Thrips)
Bean plants are treated in a spray chamber with diluted test solutions. After drying they are infested with mixed population. 12 days after the infestation, samples are checked for reduction of treated population and compared to the non treated population.

[9] = tested on: Mvzus persicae (Green Peach Aphid); assay: Example B5: activity against Myzus persicae (contact), sunflower leaf discs; format: in vivo; conditions: foliar, 144 h
Description: Activity Against Mvzus persicae (Green Peach Aphid): (Contact)
Sunflower leaf discs are placed on agar in a 24-well microtiter plate and sprayed with test solutions. After drying, the leaf discs are infested with an aphid population of mixed ages. After an incubation period of 6 DAT, samples are checked for mortality and special effects (e.g. phytotoxicity).

[10] = tested on: Diabrotica balteata (Corn Root Worm); assay: Example B4: activity against Diabrotica balteata, L2 larvae on artificial diet; format: in vivo; conditions: 120 h, 5 days incubation, read-out: activity (sentence prints only 'over 80%')
Description: Activity Against Diabrotica balteata (Corn Root Worm)
24-well microtiter plate (MTP) with artificial diet is sprayed with test solutions. After drying, the MTP's are infested with larvae (L2)(6-10 per well). After an incubation period of 5 days, samples are checked for larval mortality, antifeedant and growth inhibition.

[11] = tested on: Myzus persicae (Green Peach Aphid); assay: Example B6: activity against Myzus persicae (systemic), pea seedling roots in test solution; format: in vivo; conditions: 144 h
Text: Activity Against Myzus persicae (Green Peach Aphid): (Systemic)
Roots of pea seedlings, infested with an aphid population of mixed ages, are placed directly in the test solutions. 6 days after introduction, samples are checked for mortality and special effects on the plant.

[12] = tested on: Tetranychus urticae (Two-Spotted Spider Mite); assay: Example B8: activity against Tetranychus urticae, bean leaf discs; format: in vivo
Text: Activity Against Tetranychus urticae (Two-Spotted Spider Mite)
Bean leaf discs on agar in 24-well microtiter plates are sprayed with test solutions. After drying, the leaf discs are infested with mite populations of mixed ages. 8 days later, discs are checked for egg mortality, larval mortality, and adult mortality.

[13] = 200 ppm, 5 days incubation, L2 larvae, read-out: mortality
[14] = 200 ppm, 4 days incubation, eggs on artificial diet, read-out: mortality
[15] = 12.5 ppm in water, systemic via maize seedlings, one replicate, read-out: mortality
[16] = 200 ppm, 3 days after treatment, L1 larvae on cotton leaf discs, read-out: mortality

SMILES	mortality at 200 ppm [1] [%]	mortality at 200 ppm [2] [%]	pest or weed control at 200 ppm [10] [%]	mortality at 12.5 ppm [3] [%]	mortality at 200 ppm [4] [%]	mortality at 12.5 ppm [5] [%]	mortality at 200 ppm [6] [%]	further results
Cc1cc(Cl)cc(C(=O)NC(C)(C#N)C2CC2)c1NC(=O)c1cc(OC(F)F)nn1-c1ncccc1Cl (stereo not drawn)	–	–	–	–	–	–	–	melting point: 197 to 198 °C
Cc1cc(I)cc(C(=O)NC(C)(C#N)C2CC2)c1NC(=O)c1cc(OC(F)F)nn1-c1ncccc1Cl (stereo not drawn)	–	–	–	–	–	–	–	melting point: 203 to 204 °C
Cc1cc(Cl)cc(C(=O)NC(C)(C#N)C2CC2)c1NC(=O)c1cc(C(F)(F)F)nn1-c1ncccc1Cl (single isomer, unassigned) [Compound T1.1.49a]	–	–	–	–	–	–	–	mortality at 200 ppm [1, 13]: > 80%; mortality at 200 ppm [2, 14]: > 80%; mortality at 12.5 ppm ([3]; 12.5 ppm, 14 days incubation at 26° C., read-out: mortality): > 80%; mortality at 200 ppm ([4]; 200 ppm, 6 days incubation, mixed ages, read-out: mortality): > 80%; mortality at 12.5 ppm [5, 15]: > 80%; mortality at 200 ppm [6, 16]: > 80%
Cc1cc(Cl)cc(C(=O)NC(C#N)C2CC2)c1NC(=O)c1cc(C(F)(F)F)nn1-c1ncccc1Cl (stereo not drawn) [A.1.346, reference compound]	–	–	–	–	–	–	–	mortality at 0.0125 ppm [7]: 0%; mortality at 0.05 ppm [7]: 100%; inhibition at 12.5 ppm [8]: 0%; inhibition at 25 ppm [8]: 0%; inhibition at 50 ppm [8]: 0%
Cc1cc(Cl)cc(C(=O)NC(C)(C#N)C2CC2)c1NC(=O)c1cc(C(F)(F)F)nn1-c1ncccc1Cl (stereo not drawn) [Compound T1.1.49, 2-(3-chloro-pyridin-2-yl)-5-trifluoromethyl-2H-pyrazole-3-carboxylic acid {4-chloro-2-[(cyano-cyclopropyl-methyl-methyl)-carbamoyl]-6-methyl-phenyl}-amide]	> 80	> 80	> 80	> 80	> 80	> 80	> 80	mortality at 200 ppm [9]: > 80%; mortality at 0.0125 ppm [7]: 93%; mortality at 0.05 ppm [7]: 100%; insecticidal action compared with the compound from the state of the art (A.1.346) ([7]; Table B11): substantially better insecticidal action; inhibition at 12.5 ppm [8]: 75%; inhibition at 25 ppm [8]: 85%; inhibition at 50 ppm [8]: 90%; insecticidal action compared with the compound from the state of the art (A.1.346) ([8]; Table B12, 50, 25 and 12.5 ppm): substantially better insecticidal action
Cc1cc(Cl)cc(C(=O)NC(C)(C#N)C2CC2)c1NC(=O)c1cc(Br)nn1-c1ncccc1Cl (stereo not drawn) [Compound T1.1.50]	> 80	> 80	> 80	> 80	> 80	> 80	> 80	mortality at 12.5 ppm [11]: > 80%
Cc1cc(Cl)cc(C(=O)NC(C)(C#N)C2CC2)c1NC(=O)c1cc(Cl)nn1-c1ncccc1Cl (stereo not drawn) [Compound T1.1.51]	> 80	> 80	> 80	> 80	> 80	> 80	> 80	–
Cc1cc(Cl)cc(C(=O)NC(C)(C#N)C2CC2)c1NC(=O)c1cc(C(F)F)nn1-c1ncccc1Cl (stereo not drawn) [Compound T1.1.52]	> 80	> 80	> 80	> 80	> 80	> 80	> 80	mortality at 200 ppm [9]: > 80%; mortality at 12.5 ppm [11]: > 80%
Cc1cc(Cl)cc(C(=O)NC(C)(C#N)C2CC2)c1NC(=O)c1cc(OCC(F)(F)F)nn1-c1ncccc1Cl (stereo not drawn) [Compound T1.1.53]	> 80	> 80	> 80	> 80	–	> 80	> 80	–
COc1cc(C(=O)Nc2c(C)cc(Cl)cc2C(=O)NC(C)(C#N)C2CC2)n(-c2ncccc2Cl)n1 (stereo not drawn) [Compound T1.1.55]	> 80	> 80	> 80	–	–	> 80	> 80	mortality at 12.5 ppm [11]: > 80%
Cc1cc(I)cc(C(=O)NC(C)(C#N)C2CC2)c1NC(=O)c1cc(C(F)(F)F)nn1-c1ncccc1Cl (stereo not drawn) [Compound T1.1.105]	> 80	> 80	> 80	> 80	> 80	> 80	> 80	mortality at 200 ppm [9]: > 80%
Cc1cc(I)cc(C(=O)NC(C)(C#N)C2CC2)c1NC(=O)c1cc(Br)nn1-c1ncccc1Cl (stereo not drawn) [Compound T1.1.106]	> 80	> 80	> 80	–	–	> 80	> 80	–
Cc1cc(I)cc(C(=O)NC(C)(C#N)C2CC2)c1NC(=O)c1cc(Cl)nn1-c1ncccc1Cl (stereo not drawn) [Compound T1.1.107]	> 80	> 80	–	> 80	> 80	> 80	> 80	mortality at 200 ppm ([12]; Tetranychus urticae, foliar, 192 h): 80%; activity in words ([12]; in vivo): good activity
Cc1cc(I)cc(C(=O)NC(C)(C#N)C2CC2)c1NC(=O)c1cc(C(F)F)nn1-c1ncccc1Cl (stereo not drawn) [Compound T1.1.108]	> 80	> 80	> 80	–	> 80	–	> 80	–
COc1cc(C(=O)Nc2c(C)cc(I)cc2C(=O)NC(C)(C#N)C2CC2)n(-c2ncccc2Cl)n1 (stereo not drawn) [Compound T1.1.111]	–	–	–	–	–	–	–	mortality at 200 ppm [1, 13]: > 80%; mortality at 200 ppm [2, 14]: > 80%; mortality at 12.5 ppm [5, 15]: > 80%; mortality at 200 ppm [6, 16]: > 80%
Cc1cc(Cl)cc(C(=O)NC(C)(C#N)C2CCC2)c1NC(=O)c1cc(C(F)(F)F)nn1-c1ncccc1Cl (stereo not drawn) [Compound T2.1.49]	> 80	> 80	> 80	–	–	–	> 80	mortality at 12.5 ppm [11]: > 80%
